The results in this text go back to US20250223306A1, “TEAD INHIBITORS AND METHODS OF USE” (Sporos BioDiscovery, Inc., priority 2022, published 2025).

This assay relates to NCI-H226 xenograft. Briefly: Inhibition of mouse xenograft NCI-H226 tumors. In kind it is in vivo, BALB/c nude mice. The conditions noted are these: Day 27, p.o., QD. From the text: This study evaluated the in vivo therapeutic efficacy of TEAD inhibitors in the treatment of the subcutaneous lung cancer NCI-H226 xenograft model in female BALB/c nude mice.
• ANOVA Analysis of variance • BW Body weight • BWL Body weight loss • FFPE Formalin fixed paraffin embedded • IACUC Institutional animal care and use committee • MTV Mean tumor volume • N/A Not available or not applicable • p.o. Oral (ly) • QD Once a day • REG REG=[(T0−Ti)/T0]×100%; • Ti as the mean tumor volume of the treatment group on the measurement day; • T0 as the mean tumor volume of the treatment group on Day 0. • ROA Route of administration • RT Room temperature • RTV Relative tumor volume • SD Standard deviation • SEM Standard error of mean • SOC Standard of care used in clinical setting for a specific disease • TBD To be determined • T/C The Ti/Ci value (%): T/C %=Ti/Ci×100; • Ti and Ci are the mean tumor volumes of the treatment and control groups, respectively, on a given day. • TGI Tumor growth inhibition; TGI %=(1−Ti/Ci)×100; • Ti and Ci are the mean tumor volumes of the treatment and control groups, respectively, on a given day. • TV Tumor volume • PK/PD Pharmacokinetics/Pharmacodynamics • ΔInhibition Mean % ΔInhibition=((Ci−C0)−(Ti−T0))/(Ci−C0)*100% • Ti and Ci are the mean tumor volumes of the treatment and control groups, respectively, on a given day. T0 and C0 as the mean tumor volumes of the treatment and vehicle groups on Day 0.
• Species Mus musculus • Strain Balb/c nude • Supplier GemPharmatech Co., Ltd • Gender Female • No. of Animals Ordered 68 (45 plus 23 spare) • No. of Animals Assigned 45 • to Study • Average Age of Animals 6-8 weeks • at Study Initiation
The NCI-H226 cells (CL-00364) cancer cells were maintained in vitro with RPMI1640 medium supplemented with 10% fetal bovine serum at 37° C. in an atmosphere of 5% CO2 in the air. The cells in exponential growth phase were harvested and quantitated by cell counter before tumor inoculation.
Each mouse was inoculated subcutaneously in the right front flank region with NCI-H226 tumor cells (1×10^7) in 0.2 ml of PBS mixed with Matrigel (1:1) for tumor development.
The randomization was performed when the mean tumor size reached 138.81 mm^3. 45 mice were enrolled in the study. All animals were randomly allocated to 9 study groups, 5 mice in each group. Randomization was performed based on “Matched distribution” method/“Stratified” method (StudyDirector™ software, version 3.1.399.19)/randomized block design. The date of randomization was denoted as day 0.
The treatment was initiated on the same day of randomization (day 0) per study design.
After tumor cells inoculation, the animals were checked daily for morbidity and mortality. During routine monitoring, the animals were checked for any effects of tumor growth and treatments on behavior such as mobility, food and water consumption, body weight gain/loss (Body weights were measured twice per week after randomization), eye/hair matting and any other abnormalities. Mortality and observed clinical signs were recorded for individual animals in detail.
Tumor volumes were measured twice per week after randomization in two dimensions using a caliper, and the volume was expressed in mm^3 using the formula: “V=(L×W×W)/2, where V is tumor volume, L is tumor length (the longest tumor dimension) and W is tumor width (the longest tumor dimension perpendicular to L). Dosing as well as tumor and body weight measurements were conducted in a Laminar Flow Cabinet.
To compare tumor volumes of different groups at a pre-specified day, Bartlett's test was first used to check the assumption of homogeneity of variance across all groups. When the p-value of Bartlett's test was >=0.05, one-way ANOVA was performed to test overall equality of means across all groups. […]

Turning to `C[C@H](NC(=O)c1cnc2c(C3=CCC(C(F)(F)F)CC3)cccc2c1)c1ccccn1` (stereo partly drawn) [Compound 2, N—((S)-1-(pyridin-2-yl)ethyl)-8-(4-(trifluoromethyl)cyclohex-1-en-1-yl)quinoline-3-carboxamide], the T/C by setting is: (3 mg/kg) 64.62%; (10 mg/kg) 45.64%; (25 mg/kg) 19.66%. Moreover, the TGI runs as follows: (3 mg/kg) 35.38%; (10 mg/kg) 54.36%; (25 mg/kg) 80.34%. In addition, the “Tumor Volume (mean ± SEM)” value runs as follows: (3 mg/kg) 345.21 ± 85.33 mm^3; (10 mg/kg) 243.78 ± 74.70 mm^3; (25 mg/kg) 105.03 ± 13.17 mm^3.

As for `O=C(NCc1ncco1)c1cnc2c(C3=CCC(C(F)(F)F)CC3)cccc2c1` (stereo not drawn) [Compound 11, N-(oxazol-2-ylmethyl)-8-(4-(trifluoromethyl)cyclohex-1-en-1-yl)quinoline-3-carboxamide], where the note is “3 mg/kg”, the T/C was found to be 89.83%, the TGI came out at 10.17% and the “Tumor Volume (mean ± SEM)” value came out at 479.84 ± 96.60 mm^3. Where the note is “10 mg/kg”, the T/C was found to be 36.49%, the inhibition of tumour growth (TGI) stood at 63.51% and the “Tumor Volume (mean ± SEM)” value was determined as 194.94 ± 42.44 mm^3. Further, where the note is “25 mg/kg”, the T/C came out at 21.10%, the TGI was 78.90% and the “Tumor Volume (mean ± SEM)” value is reported as 112.73 ± 17.20 mm^3.

The term T/C denotes the ratio of treated to control. As usually defined, the TGI is how far tumour growth fell short of that in controls.
